# Calls of active or inactive are those of the source.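 Rule for the calls: active = inhibition of 50% or more at 300 nM in exactly one of the two enzyme panels, LYPLA1 or LYPLA2; inactive = under 50% in both panels, or reaching 50% in both.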
# What was measured:
# [1] = biological target: Acyl-protein thioesterase 2 (Homo sapiens) (UniProt O95372); experiment: LYPLA1 and LYPLA2 inhibitors in proteome, late-stage follow-up, selectivity assay for LYPLA1/LYPLA2 inhibitor project, cell lysate, gel-based ABPP, fluorescence, HEK293T proteome, powder samples (AID 651988); conditions: HEK293T soluble proteome, FP-PEG-Rh fluorescence, LYPLA2, at 10 µM, stronger effect = higher value
# [2] = biological target: Acyl-protein thioesterase 1 (Homo sapiens) (UniProt O75608); experiment: as above; conditions: HEK293T soluble proteome, FP-PEG-Rh fluorescence, LYPLA1, at 10 µM, stronger effect = higher value
# Sequence of Acyl-protein thioesterase 1 (Homo sapiens) (O75608 whole entry, looked up): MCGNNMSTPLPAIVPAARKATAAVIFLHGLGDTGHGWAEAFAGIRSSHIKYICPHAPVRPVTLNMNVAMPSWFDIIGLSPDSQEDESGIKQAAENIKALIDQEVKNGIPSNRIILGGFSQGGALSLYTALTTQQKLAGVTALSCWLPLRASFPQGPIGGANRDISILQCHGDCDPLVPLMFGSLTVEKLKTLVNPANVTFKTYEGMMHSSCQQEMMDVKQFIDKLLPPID
# Sequence of Acyl-protein thioesterase 2 (Homo sapiens) (O95372 whole entry, looked up): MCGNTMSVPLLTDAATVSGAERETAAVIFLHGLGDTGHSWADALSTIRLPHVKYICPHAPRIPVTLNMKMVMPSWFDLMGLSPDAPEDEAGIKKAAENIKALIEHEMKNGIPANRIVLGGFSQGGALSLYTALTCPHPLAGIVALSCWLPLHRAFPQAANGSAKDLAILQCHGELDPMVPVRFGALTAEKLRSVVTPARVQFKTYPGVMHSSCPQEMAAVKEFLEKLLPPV
Structure (SMILES),inhibition [1],inhibition [2]
O=C(CN1CCN(C(=O)c2ccco2)CC1)Nc1ccc(Br)cc1Cl,50% (inactive),50% (inactive)
O=C(CN1CCN(C(=O)c2ccco2)CC1)Nc1cc(Cl)ccc1Cl,25% (inactive),100%
O=C(c1cc2c(s1)-c1ccccc1S(=O)(=O)C2)N1CCN(c2ccc(Cl)cc2)CC1,100% (inactive),0% (inactive)
O=C(c1ccco1)N1CCN(C(=S)Nc2cccc([N+](=O)[O-])c2)CC1,0% (inactive),0% (inactive)
O=C(c1cc2c(s1)-c1ccc(Cl)cc1S(=O)(=O)C2)N1CCN(c2ccccn2)CC1,0% (inactive),0% (inactive)
O=C(CN1CCN(C(=O)c2ccco2)CC1)Nc1ccc(Cl)cc1Cl,50% (inactive),50% (inactive)
O=C(c1cc2c(s1)-c1ccccc1S(=O)(=O)C2)N1CCN(Cc2ccccc2)CC1,50% (inactive),0% (inactive)
COc1ccccc1N1CCN(C(=O)c2cc3c(s2)-c2ccccc2S(=O)(=O)C3)CC1,0% (inactive),0% (inactive)
O=C(c1ccco1)N1CCN(C(=S)Nc2ccc(F)c(Cl)c2)CC1,50% (inactive),100% (inactive)
O=C(CN1CCN(C(=O)c2ccccc2)CC1)Nc1cc(S(=O)(=O)N2CCCC2)ccc1Cl,0% (inactive),75% (inactive)
O=C(CN1CCN(C(=O)c2ccco2)CC1)Nc1cccc(Cl)c1Cl,0% (inactive),0% (inactive)
O=C(Nc1ccc(N2CCN(C(=O)c3ccco3)CC2)c(Cl)c1)c1c(F)c(F)c(F)c(F)c1F,50% (inactive),75% (inactive)
CC1CCc2c(sc(NC(=O)CN3CCN(C(=O)c4ccco4)CC3)c2C#N)C1 (configuration not stated),0% (inactive),0% (inactive)
CCOC(=O)N1CCN(C(=O)c2cc3c(s2)-c2ccc(Cl)cc2S(=O)(=O)C3)CC1,0% (inactive),0% (inactive)

# Results, then the molecule that gave them:
inhibition [1],inhibition [2],Structure (SMILES)
100%,0% (inactive),COc1ccc(N2CCN(C(=O)c3cc4c(s3)-c3ccccc3S(=O)(=O)C4)CC2)cc1
25% (inactive),0% (inactive),O=C(c1cc2c(s1)-c1ccccc1S(=O)(=O)C2)N1CCN(C2CCCCC2)CC1
75% (inactive),0% (inactive),O=C(c1cc2c(s1)-c1ccc(Cl)cc1S(=O)(=O)C2)N1CCN(C2CCCCC2)CC1
75% (inactive),0% (inactive),O=C(c1cc2c(s1)-c1ccccc1S(=O)(=O)C2)N1CCN(c2ccccc2)CC1
0% (inactive),0% (inactive),CC(C(=O)Nc1cccc(C(F)(F)F)c1)N1CCN(C(=O)c2ccco2)CC1 (configuration not stated)
100% (inactive),0% (inactive),COc1ccc(N2CCN(C(=O)c3cc4c(s3)CCCCC4)CC2)cc1
0% (inactive),25% (inactive),O=C(COc1ccc(Cl)cc1)N1CCN(c2cccc(C(F)(F)F)c2)CC1
75% (inactive),0% (inactive),O=C(c1cc2c(s1)-c1ccc(Cl)cc1S(=O)(=O)C2)N1CCN(c2ncccn2)CC1
75% (inactive),0% (inactive),COc1ccc(N2CCN(C(=O)c3ccc(C(C)(C)C)cc3)CC2)cc1
0% (inactive),0% (inactive),Cc1nnsc1C(=O)N1CCCC(N2CCN(c3cccc(C(F)(F)F)c3)CC2)C1 (configuration not stated)
25% (inactive),100%,O=C(CN1CCN(C(=O)c2ccco2)CC1)Nc1cc(C(F)(F)F)ccc1Cl
0% (inactive),0% (inactive),O=C(c1cc2c(s1)-c1ccccc1S(=O)(=O)C2)N1CCN(c2cccc(Cl)c2)CC1

# — PubChem BioAssay AID651988 (The Scripps Research Institute Molecular Screening Center, 2013)
